Test results from US8163939B2, “Ascorbic acid derivative or salt thereof, production method thereof, and cosmetic” (Seikwa Kasei Company, Limited, priority 2007, dated 2012).
Blank lines part the entries; values can stand above or below the molecule they belong to.

How the values were obtained:
[1] = Moisturizing test: moisturizing effect by water retention force; assay type: physicochemical
Method: A sample shown later was dried, and the dried sample was spread in an amount of about 0.4 g (this weight is represented by W0) on the bottom of a weighing bottle (diameter: 3.6 cm, height excluding lid: 1.8 cm) so as to give uniform thickness. The sample contained in the weighing bottle was allowed to stand still in a constant humidity and constant temperature vessel (ENVIROS KCL-1000, TOKYO RIKAKIKAI CO, LTD) under environments of 25° C. and 65% RH. The weight was measured periodically, waiting until sufficient moisture absorption to attain equilibrium of weight increase (about 48 hours). Thereafter, the sample was transferred to under environments of 25° C. and 20% RH (in sealed vessel containing a saturated CH3COOK aqueous solution filled in the bottom part). From the weight after 24 hours (this weight is represented by W1), the amount of retained water per 1 g of the dried sample was calculated according to the following formula. (W1−W0)/W0
From the water amount thus calculated, the moisturizing effect was judged based on the following judging criterion, and the results are shown in Table 43.
Three compounds: 2,3-di-O-glyceryl ascorbic acid, 2,3-di-O-phenylglyceryl ascorbic acid, and glycerin, and
Six compounds: ascorbic acid, ascorbic acid glucoside, 2-O-glyceryl ascorbic acid, 3-O-glyceryl ascorbic acid, 3-O-butylglyceryl ascorbic acid and 3-O-octylglyceryl ascorbic acid, which were adjusted to pH7 with a dilute sodium hydroxide aqueous solution and concentrated.
◯: 25 mg or more and less than 40 mg
Δ: 10 mg or more and less than 25 mg

B16 melanoma 4A5 cell = test: Whitening test: theophylline-induced melanine production in B16 melanoma 4A5 cells; assay type: cell-based, mouse; details: sample at a concentration of 100 μM or less; theophylline-induced melanine production; 3 days culture; N=4;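 also: grades: ± under 20% + 20-40% ++ 40-70% +++ 70-100% suppression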
Method: As a test for a whitening effect, evaluation of the action of B16 melanoma 4A5 cell on theophylline-induced melanine production was carried out on an ascorbic acid derivative of the present invention, according to the following procedure. The same evaluation was carried out also on ascorbic acid, known compounds: ascorbic acid salts, and ascorbic acid derivatives, as comparison. The results are shown in Tables 38 to 40. • (1) B16 mouse melanoma 4A5 strain was sowed onto a 48-well plate at a cell density of 2.0×10^4 cells/well. • (2) Culturing was performed for 24 hours with Dulbecco's Modified Eagle's medium (manufactured by SIGMA. Hereinafter, abbreviated as D-MEM) containing 10% fetal bovine serum (manufactured by Roshe Diagnostics). Then, it was changed to 0.2 mM theophylline and a 10% fetal bovine serum-containing D-MEM which contains a sample of given concentration. • (3) After culturing for 3 days in the co-existence of a sample, the medium was removed using an aspirator. Then, after distilled water was added, cells were broken by an ultrasonic wave. • (4) Thereafter, the amount of protein was determined using BCA protein assay kit (manufactured by PIERCE), and the produced amount of melanine was measured by an alkali solubilizing method. To the cell-destructed solution was added sodium hydroxide so as to give a final concentration of 2N and the mixture was dissolved by heating (60° C., 15 minutes), then, the absorbance at 450 nm was measured using a micro plate reader. The melanine amount was calculated from a calibration curve made using synthetic melanine (SIGMA) as a standard. The melanine amount per unit protein was calculated by dividing the melanine amount by the protein amount. • (5) The melanine production suppressing rate was calculated according to the following formula. Melanine production suppressing rate (%)=[1−(A−B)/(C−B)]×100 [wherein, A represents the melanine amount per unit protein (g/g) in adding a sample, B represents the melanine amount per unit protein (g/g) in the normal group, and C represents the melanine amount per unit protein (g/g) in the control group.]
In the following Tables, the melanine production suppressing rate in measuring a sample at a concentration of 100 μM or less is expressed as described below. The measurement was carried out at N=4.

[2] = tested on: Normal human dermal fibroblasts; test: Collagen production of human fibroblast (Sircol collagen assay, 100 μM, 48 hours); assay type: cell-based; details: Homo sapiens, Fibroblast, cultured 48 hours, N=4, read-out: Collagen production promoting effect (collagen production amount, % of control group)
Method: (§1) Normal human dermal fibroblasts were regulated with a 10% (v/v) fetal bovine serum (manufactured by Roshe Diagnostics)-containing D-MEM so as to give a cell density of 2.5×10^4 cells/well, then, pre-incubation for 24 hours was performed on a 96-well plate. After the medium was removed, a sample regulated with a 5% (v/v) fetal bovine serum-containing D-MEM to a concentration of 100 μM was added to each well, then, cultured for 48 hours under 37° C. and 5% CO2. After completion of culturing, the amount of free collagen was measured using Sircol collagen assay kit (manufactured by Biocolor). The measurement was carried out at N=4.
The collagen production amount in measuring a sample at a concentration of 100 μM was compared with the control group, and the results thereof (% value when the control group is 100%) are shown in Tables 44 and 45 based on the following standard.

[3] = tested on: Normal human dermal fibroblasts; test: Collagen production of human fibroblast 2 (100 μM or 500 μM; 2, 4 and 7 days); assay type: cell-based; details: for Collagen production amount in comparison with the control group (% value when the control group is 100%): 100 μM or 500 μM (not stated which), average ± standard error, N=4
Method: as §1
Free collagen was measured under the same conditions as in Test Example 5 excepting that the concentration of each sample was 100 μM or 500 μM and culturing was carried out for 2 days, 4 days and 7 days. The measurement was carried out at N=4, and the average and standard error, in four test examples, of values of the collagen production amount in comparison with the control group (% value when the control group is 100%) are shown in Tables 46 and 47.

[4] = Stability Test 2: 2% aqueous solution, pH7, 50° C., 4 weeks (residual rate, odor, coloration); assay type: physicochemical
Method: (§2) Aqueous solutions (2%) of various test samples were adjusted to pH7 with a dilute sodium hydroxide aqueous solution, and charged into 50 mL screw tubes, and the tubes were sealed and stored at room temperature for 4 weeks. Thereafter, HPLC measurement were performed (using liquid chromatography manufactured by Tosoh Corp.) and the residual rate was obtained based on the peak area. The residual rate, odor(odor change) and degree of coloration were evaluated based on the following methods and standards, and the results are shown in Table 41.
The same test as in Test Example 2 was carried out excepting that the sample was stored at 50° C. for 4 weeks instead of storing at room temperature for 4 weeks.

[5] = Stability Test 1: 2% aqueous solution, pH7, room temperature, 4 weeks (residual rate, odor, coloration); assay type: physicochemical
Method: as §2
◯: 80% or more and less than 90%
Δ: 60% or more and less than 80%
X: 20% or more and less than 60%
It was evaluated according to the following criterion by 10 panelists.
Based on the evaluation results, classification was conducted as shown below.
◯: total point of 10 panelists is 25 or more
Δ: total point of 10 panelists is 16 to 24
X: total point of 10 panelists is 15 or less
3: almost no change as compared with that immediately after preparation
2: coloration is observed as compared with that immediately after preparation
1: intense coloration is observed as compared with that immediately after preparation

[6] = storage period 2 weeks, 10 panelists
[7] = storage period 4 weeks, 10 panelists
[8] = Table 46, culturing period 2 days
[9] = Table 46, culturing period 4 days
[10] = Table 46, culturing period 7 days

Molecule: O=C1OC(C(O)CO)C(OCC(O)CO)=C1O (stereo not drawn) [Example 1, 3-O-glyceryl ascorbic acid]
- Whitening effect (melanine production suppressing rate) (B16 melanoma 4A5 cell): + (20 to 40%:+)
- activity at 100 µM [2]: 100 to 200%
- Collagen production amount in comparison with the control group (% value when the control group is 100%) [3, 8]: 182 ± 7%
- Collagen production amount in comparison with the control group (% value when the control group is 100%) [3, 9]: 209 ± 8%
- Collagen production amount in comparison with the control group (% value when the control group is 100%) [3, 10]: 219 ± 29%
- Residual rate ([5]; storage period 0): ⊚ (⊚: 90% or more)
- Coloration ([5]; storage period 0, 10 panelists): ◯ (◯: total point of 10 panelists is 25 or more)
- Odor ([5]; storage period 0, 10 panelists): ◯ (◯: total point of 10 panelists is 25 or more)
- Residual rate ([5]; storage period 2 weeks): ◯ (◯: 80% or more and less than 90%)
- Coloration [5, 6]: ◯ (◯: total point of 10 panelists is 25 or more)
- Odor [5, 6]: ◯ (◯: total point of 10 panelists is 25 or more)
- Residual rate ([5]; storage period 4 weeks): ◯ (◯: 80% or more and less than 90%)
- Coloration [5, 7]: ◯ (◯: total point of 10 panelists is 25 or more)
- Odor [5, 7]: ◯ (◯: total point of 10 panelists is 25 or more)

Molecule: 3-O-butylglycerylascorbic acid
- Judgement of moisturizing effect (water amount) [1]: ◯ (◯: 25 mg or more and less than 40 mg)

Molecule: 2,3-di-O-phenylglycerylascorbic acid
- Judgement of moisturizing effect (water amount) [1]: Δ (Δ: 10 mg or more and less than 25 mg)

Molecule: O=C1O[C@H]([C@@H](O)CO)C(OCC(O)CO)=C1OCC(O)CO (stereo partly drawn) [2,3-di-O-glycerylascorbic acid]
- Judgement of moisturizing effect (water amount) [1]: ⊚ (⊚: 40 mg or more)

Molecule: 3-O-octylglycerylascorbic acid
- Judgement of moisturizing effect (water amount) [1]: Δ (Δ: 10 mg or more and less than 25 mg)

Molecule: O=C1O[C@H]([C@@H](O)CO)C(OCC(O)CO)=C1O (stereo partly drawn) [Example 1, 3-O-glyceryl ascorbic acid]
- moisturizing effect (in words) ([1]; conclusion from Table 43, compared with ascorbic acid): more excellent moisturizing effect than ascorbic acid

Further lines, with some results ahead:

- Judgement of moisturizing effect (water amount) [1]: ⊚ (⊚: 40 mg or more)
Molecule: OCC(O)CO [glycerin, reference compound]

- Judgement of moisturizing effect (water amount) [1]: ⊚ (⊚: 40 mg or more)
Molecule: O=C1O[C@H]([C@@H](O)CO)C(O)=C1OCC(O)CO (stereo partly drawn) [2-O-glycerylascorbic acid]

- Residual rate ([4]; storage period 0): ⊚ (⊚: 90% or more)
- Residual rate ([4]; storage period 2 weeks): ⊚ (⊚: 90% or more)
- Residual rate ([4]; storage period 4 weeks): ⊚ (⊚: 90% or more)
- Residual rate ([5]; storage period 0): ⊚ (⊚: 90% or more)
- Residual rate ([5]; storage period 2 weeks): ⊚ (⊚: 90% or more)
- Residual rate ([5]; storage period 4 weeks): ⊚ (⊚: 90% or more)
Molecule: CCCCCCCCOC1=C(OCC(O)CO)[C@@H]([C@@H](O)CO)OC1=O (stereo partly drawn) [Example 14, 3-O-glyceryl-2-O-octyl ascorbic acid]
- Whitening effect (melanine production suppressing rate) (B16 melanoma 4A5 cell): +++ (70 to 100%:+++)
- activity at 100 µM [2]: 100 to 200%
- Collagen production amount in comparison with the control group (% value when the control group is 100%) ([3]; Table 47, culturing period 2 days): 132 ± 22%
- Collagen production amount in comparison with the control group (% value when the control group is 100%) ([3]; Table 47, culturing period 4 days): 144 ± 9%
- Collagen production amount in comparison with the control group (% value when the control group is 100%) ([3]; Table 47, culturing period 7 days): 238 ± 17%
- Coloration ([4]; storage period 0, 10 panelists): ◯ (◯: total point of 10 panelists is 25 or more)
- Odor ([4]; storage period 0, 10 panelists): ◯ (◯: total point of 10 panelists is 25 or more)
- Coloration [4, 6]: ◯ (◯: total point of 10 panelists is 25 or more)
- Odor [4, 6]: ◯ (◯: total point of 10 panelists is 25 or more)
- Coloration [4, 7]: ◯ (◯: total point of 10 panelists is 25 or more)
- Odor [4, 7]: ◯ (◯: total point of 10 panelists is 25 or more)
- Coloration ([5]; storage period 0, 10 panelists): ◯ (◯: total point of 10 panelists is 25 or more)
- Odor ([5]; storage period 0, 10 panelists): ◯ (◯: total point of 10 panelists is 25 or more)
- Coloration [5, 6]: ◯ (◯: total point of 10 panelists is 25 or more)
- Odor [5, 6]: ◯ (◯: total point of 10 panelists is 25 or more)
- Coloration [5, 7]: ◯ (◯: total point of 10 panelists is 25 or more)
- Odor [5, 7]: ◯ (◯: total point of 10 panelists is 25 or more)

- Residual rate ([4]; storage period 0): ◯ (◯: 80% or more and less than 90%)
- Residual rate ([4]; storage period 2 weeks): X (X: 20% or more and less than 60%)
- Residual rate ([4]; storage period 4 weeks): X (X: 20% or more and less than 60%)
- Residual rate ([5]; storage period 0): ⊚ (⊚: 90% or more)
- Residual rate ([5]; storage period 2 weeks): ◯ (◯: 80% or more and less than 90%)
- Residual rate ([5]; storage period 4 weeks): ◯ (◯: 80% or more and less than 90%)
Molecule: CCOC1=C(O)C(=O)O[C@@H]1[C@@H](O)CO [3-O-ethylascorbic acid, reference compound]
- Whitening effect (melanine production suppressing rate) (B16 melanoma 4A5 cell): + (20 to 40%:+)
- activity at 100 µM [2]: 100 to 200%
- collagen production promoting effect over time (in words) ([3]; 100 μM or 500 μM, culturing 2, 4 and 7 days): lowers over time
- Collagen production amount in comparison with the control group (% value when the control group is 100%) [3, 8]: 140 ± 4%
- Collagen production amount in comparison with the control group (% value when the control group is 100%) [3, 9]: 138 ± 2%
- Collagen production amount in comparison with the control group (% value when the control group is 100%) [3, 10]: 106 ± 14%
- Coloration ([4]; storage period 0, 10 panelists): ◯ (◯: total point of 10 panelists is 25 or more)
- Odor ([4]; storage period 0, 10 panelists): ◯ (◯: total point of 10 panelists is 25 or more)
- Coloration [4, 6]: Δ (Δ: total point of 10 panelists is 16 to 24)
- Odor [4, 6]: Δ (Δ: total point of 10 panelists is 16 to 24)
- Coloration [4, 7]: Δ (Δ: total point of 10 panelists is 16 to 24)
- Odor [4, 7]: Δ (Δ: total point of 10 panelists is 16 to 24)
- Coloration ([5]; storage period 0, 10 panelists): ◯ (◯: total point of 10 panelists is 25 or more)
- Odor ([5]; storage period 0, 10 panelists): ◯ (◯: total point of 10 panelists is 25 or more)
- Coloration [5, 6]: ◯ (◯: total point of 10 panelists is 25 or more)
- Odor [5, 6]: ◯ (◯: total point of 10 panelists is 25 or more)
- Coloration [5, 7]: Δ (Δ: total point of 10 panelists is 16 to 24)
- Odor [5, 7]: ◯ (◯: total point of 10 panelists is 25 or more)

- Judgement of moisturizing effect (water amount) [1]: ◯ (◯: 25 mg or more and less than 40 mg)
Molecule: O=C1O[C@H]([C@@H](O)CO)C(OCC(O)CO)=C1O (stereo partly drawn) [3-O-glycerylascorbic acid]
